Laboratory results as given in ChEMBL document CHEMBL4706623, “GPR52 Antagonist Reduces Huntingtin Levels and Ameliorates Huntington's Disease-Related Phenotypes” (J Med Chem, 2021).

Biological target: G-protein coupled receptor 52 (Homo sapiens, UniProt Q9Y2T5)
Assay: Antagonist activity at GPR52 (unknown origin) expressed in HEK293 cells assessed as inhibition of WO459-induced cAMP accumulation preincubated for 15 mins followed by WO459 addition and measured after 30 mins by LANCE Ultra cAMP kit based microplate reader analysis; call rule not given here
Format: functional, cell-based

G-protein coupled receptor 52, sequence (Q9Y2T5 whole entry): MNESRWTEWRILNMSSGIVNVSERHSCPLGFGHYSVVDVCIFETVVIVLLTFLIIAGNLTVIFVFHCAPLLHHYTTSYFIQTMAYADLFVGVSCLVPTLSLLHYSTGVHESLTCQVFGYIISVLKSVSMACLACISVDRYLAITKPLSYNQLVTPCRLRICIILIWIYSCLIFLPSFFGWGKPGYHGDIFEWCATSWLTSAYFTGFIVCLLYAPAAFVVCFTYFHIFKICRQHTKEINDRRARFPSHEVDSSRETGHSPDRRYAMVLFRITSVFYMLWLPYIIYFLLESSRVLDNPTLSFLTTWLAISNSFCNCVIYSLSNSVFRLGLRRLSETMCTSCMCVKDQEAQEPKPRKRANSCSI

Compound | IC50 (hek293) | IC50 (read-out: IC50)
O=C(/C=C/CCc1ccccc1)N1CCCCC1 | Not Active | –
O=C(/C=C/CCc1ccccc1)c1ccc(-c2ccccc2)cc1 | – | 7.64 µM
